Measurements published in ChEMBL document CHEMBL4402555, “Impact of the structure-activity relationship of AHL analogues on quorum sensing in Gram-negative bacteria” (Bioorg Med Chem, 2020).

Experiments:
[1] = target: T1, Transcriptional activator protein LuxR (Aliivibrio fischeri, UniProt P12746); assay: Antagonist activity at Aliivibrio fischeri LuxR by luminescence method
T1 sequence (P12746 whole entry): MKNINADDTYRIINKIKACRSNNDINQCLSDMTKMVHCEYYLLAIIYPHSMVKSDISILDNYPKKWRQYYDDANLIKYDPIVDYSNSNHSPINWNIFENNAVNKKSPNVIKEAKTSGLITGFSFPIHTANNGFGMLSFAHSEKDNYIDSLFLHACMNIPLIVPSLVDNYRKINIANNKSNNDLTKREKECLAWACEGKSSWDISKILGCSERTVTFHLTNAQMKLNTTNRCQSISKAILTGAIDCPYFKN

[2] = target: T2, Transcriptional activator protein LasR (Pseudomonas aeruginosa (strain ATCC 15692 / PAO1 / 1C / PRS 101 / LMG12228), UniProt P25084); assay: Activation of LasR in Pseudomonas aeruginosa PAO-JP2 harboring plasI-LVAgfp incubated for 6 hrs by fluorescence method
T2 sequence (P25084 whole entry): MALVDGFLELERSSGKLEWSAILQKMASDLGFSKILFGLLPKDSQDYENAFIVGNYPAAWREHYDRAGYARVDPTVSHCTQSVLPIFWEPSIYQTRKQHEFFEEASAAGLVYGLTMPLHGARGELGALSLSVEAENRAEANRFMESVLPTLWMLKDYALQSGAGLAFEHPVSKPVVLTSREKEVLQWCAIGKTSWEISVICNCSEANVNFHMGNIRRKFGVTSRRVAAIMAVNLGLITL

[3] = Activation of LasR in Escherichia coli JLD271 harboring pSC11/pJN105L using CPRG as substrate incubated for 4 hrs by Miller assay method
[4] = target: T2, Transcriptional activator protein LasR; assay: Inhibition of LasR in Pseudomonas aeruginosa PAO-JP2 harboring plasI-LVAgfp incubated for 6 hrs by fluorescence method
[5] = target: T1, Transcriptional activator protein LuxR; assay: Agonist activity at Aliivibrio fischeri LuxR by luminescence method
[6] = target: T1, Transcriptional activator protein LuxR; assay: Antagonist activity at Aliivibrio fischeri ES114 LuxR after 4 to 8 hrs by luminescence method
[7] = target: T1, Transcriptional activator protein LuxR; assay: Inhibition of Aliivibrio fischeri LuxR by luminescence method
[8] = target: T2, Transcriptional activator protein LasR; assay: Antagonist activity at LasR in Pseudomonas aeruginosa harboring plasI-LVAgfp assessed as inhibition of GFP production incubated for 6 hrs by fluorescence method
[9] = Antagonist activity at LasR in Escherichia coli JLD271 harboring pSC11/ pJN105L using CPRG as substrate incubated for 4 hrs by Miller assay
[10] = target: T2, Transcriptional activator protein LasR; assay: Antagonist activity at Pseudomonas aeruginosa LasR transfected with lasB-GFP by […] method
[11] = Inhibition of quorum sensing system in Pseudomonas aeruginosa
[12] = Inhibition of quorum sensing system in Pseudomonas aeruginosa transfected with lasB-lacZ in presence of PA1
[13] = Inhibition of LasR in Escherichia coli JLD271 harboring pSC11/pJN105L using CPRG as substrate incubated for 4 hrs by Miller assay method
[14] = target: T3, Transcriptional activator protein LasR (Pseudomonas aeruginosa (strain ATCC 15692 / PAO1 / 1C / PRS 101 / LMG12228)) (UniProt P25084); assay: Antagonist activity at LasR in Pseudomonas aeruginosa PAO-JP2 harboring plasI-LVAgfp assessed as inhibition of GFP expression by measuring reduction in fluorescence intensity at 100 uM incubated for 6 hrs in presence of AI1 by fluorescence based competitive assay relative to control
T3 sequence (whole entry): T2 sequence (P25084 whole entry)

[15] = test system: Chromobacterium violaceum; assay: Inhibition of CviI/CviR in Chromobacterium violaceum ATCC 31532 assessed as reduction in violacein production at 40 uM incubated for 24 hrs relative to control
[16] = Inhibition of CviI/CviR in Chromobacterium violaceum ATCC 31532 assessed as reduction in violacein production incubated for 24 hrs
[17] = test system: Pseudomonas aeruginosa PAO1; assay: Inhibition of LasI/LasR in Pseudomonas aeruginosa PAO1 assessed as reduction in swarming motility at 400 uM incubated for 18 hrs relative to control
[18] = test system: Pseudomonas aeruginosa PAO1; assay: Inhibition of LasI/LasR in Pseudomonas aeruginosa PAO1 assessed as reduction in protein-mediated transition from microcolonies to mature biofilm at 400 uM incubated for 22 hrs by crystal violet staining assay relative to control
[19] = test system: Pseudomonas aeruginosa; assay: Inhibition of LasI/LasR in Pseudomonas aeruginosa ATCC 9027 assessed as reduction in protein-mediated transition from microcolonies to mature biofilm at 400 uM incubated for 22 hrs by crystal violet staining assay relative to control
[20] = test system: Pseudomonas aeruginosa; assay: Inhibition of LasI/LasR in Pseudomonas aeruginosa ATCC 15422 assessed as reduction in protein-mediated transition from microcolonies to mature biofilm at 400 uM incubated for 22 hrs by crystal violet staining assay relative to control
[21] = target: T4, Regulatory protein SdiA (Escherichia coli (strain K12)) (UniProt P07026); assay: Inhibition of sdiA in Escherichia coli K-12 assessed as reduction in protein-mediated transition from microcolonies to mature biofilm at 400 uM incubated for 22 hrs by crystal violet staining assay relative to control
T4 sequence (whole entry): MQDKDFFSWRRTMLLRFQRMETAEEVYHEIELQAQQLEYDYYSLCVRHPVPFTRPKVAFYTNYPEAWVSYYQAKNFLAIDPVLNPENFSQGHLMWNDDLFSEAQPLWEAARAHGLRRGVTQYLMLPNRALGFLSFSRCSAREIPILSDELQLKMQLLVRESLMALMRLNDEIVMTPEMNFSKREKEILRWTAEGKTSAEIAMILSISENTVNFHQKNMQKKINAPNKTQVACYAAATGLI

[22] = test system: HL; assay: Cytotoxicty against human HL cells at 100 uM after 24 hrs by CellTiter Glo assay relative to control; type: cell-based
[23] = test system: RAW264.7; assay: Cytotoxicty against mouse RAW264.7 cells at 100 uM after 24 hrs by CellTiter Glo assay relative to control; type: cell-based; conditions: raw264.7, 24 h
[24] = target: T3, Transcriptional activator protein LasR (Pseudomonas aeruginosa (strain ATCC 15692 / PAO1 / 1C / PRS 101 / LMG12228)); assay: Antagonist activity at LasR in Pseudomonas aeruginosa PAO1 assessed as inhibition of pyocyanin production at 50 uM incubated for 13 hrs relative to control

O=C(CSCc1ccccc1)NC1CCOC1=O (stereo not given)
IC50 [1]: 2 to 3 µM

CCC(=O)CC(=O)Nc1ccccc1O
EC50 [2]: 17 µM
EC50 [3]: 0.096 µM

O=C(COc1cccc(Br)c1)N[C@H]1CCSC1=O
EC50 [2]: 4.2 µM
EC50 [3]: 0.013 µM

CCCCCCCCS(=O)(=O)NC1CCOC1=O (stereo not given)
IC50 [1]: 10 µM

CCC(=O)CC(=O)Nc1ccccc1
IC50 [4]: 9.7 µM
EC50 [3]: 0.92 µM

O=C(CCCC1CCCCC1)NC1CCOC1=O (stereo not given)
EC50 [5]: > 6 µM

O=C(CC(=O)NC1CCOC1=O)Cc1ccc(Cl)cc1 (stereo not given)
IC50 [1]: 3 µM

O=C(Cc1ccc(Cl)cc1)N[C@H]1CCOC1=O
IC50 [6]: 4.1 µM

O=C(CC(=O)NC1CCOC1=O)Cc1ccccc1 (stereo not given)
IC50 [1]: 2 µM

O=C(Cc1ccc([N+](=O)[O-])cc1)N[C@H]1CCOC1=O
IC50 [6]: 1 µM

Cc1ccc(CC(=O)CC(=O)NC2CCOC2=O)cc1 (stereo not given)
IC50 [1]: 4 µM

O=C(Cc1ccc(C(F)(F)F)cc1)N[C@H]1CCOC1=O
IC50 [6]: 0.6 µM
IC50 [4]: 3 µM
EC50 [2]: 140 µM
EC50 [3]: 0.65 µM

O=C1OCCC1NS(=O)(=O)CCCc1ccccc1 (stereo not given)
IC50 [1]: 20 µM

O=C1OCCC1NS(=O)(=O)Cc1ccccc1 (stereo not given)
IC50 [1]: 40 µM

CCCCS(=O)(=O)NC1CCOC1=O (stereo not given)
IC50 [1]: 12 µM

CCCC(=O)CS(=O)(=O)NC1CCOC1=O (stereo not given)
IC50 [1]: 40 µM

CCCCCCCCCC(=O)N[C@H]1CCSC1=O
IC50 [7]: 0.13 µM

CCCCCCCCCNC(=O)CC(=O)Cc1ccccc1
IC50 [8]: 15 µM
IC50 [9]: 2 µM

CCCCCCS(=O)(=O)NC1CCOC1=O (stereo not given)
IC50 [1]: 6.5 µM

CCCCCCCS(=O)(=O)NC1CCOC1=O (stereo not given)
IC50 [1]: 9 µM

O=C1OCCC1NS(=O)(=O)CCc1ccccc1 (stereo not given)
IC50 [1]: 3 µM

O=C(CC(=O)NC1CCOC1=O)Cc1ccccc1Cl (stereo not given)
IC50 [1]: 6 µM

O=C(NCc1cc(Br)cc(Br)c1OC(=O)c1ccccc1[N+](=O)[O-])c1ccccc1Cl
EC50 [3]: 0.0078 µM

CCCCCCCSCC(=O)N[C@H]1CCOC1=O
IC50 [10]: 6 µM

O=C(Cc1ccccc1)CS(=O)(=O)NC1CCOC1=O (stereo not given)
IC50 [1]: 40 µM

CCC(=O)CC(=O)NC1CCCCC1=O (stereo not given)
IC50 [4]: > 100 µM
EC50 [2]: > 200 µM
EC50 [3]: 0.24 µM

COc1ccc(CC(=O)CC(=O)NC2CCOC2=O)cc1 (stereo not given)
IC50 [1]: 3 µM

O=C(CC(=O)NC1CCOC1=O)Cc1cccc(Cl)c1 (stereo not given)
IC50 [1]: 4 µM

CCCCCCCCC(=O)CC(=O)Nc1ccccc1
IC50 [11]: 5.5 µM

CCCCCS(=O)(=O)NC1CCOC1=O (stereo not given)
IC50 [1]: 2 µM

O=C(CC(=O)N[C@H]1CCOC1=O)CC1CCCCC1
EC50 [5]: 1.1 µM

CCCCCCCCCC(=O)NC1CCCC1 [N-CYCLOPENTYLDECANAMIDE]
IC50 [4]: > 50 µM
IC50 [12]: 80 µM

O=C(Cc1ccc(I)cc1)N[C@H]1CCOC1=O
IC50 [6]: 0.9 µM

O=C(CCCc1ccccc1)N[C@H]1CCOC1=O
IC50 [4]: 175 µM
IC50 [13]: 1 µM

O=C(CC(=O)N[C@H]1CCOC1=O)Cc1ccccc1
IC50 [13]: 2.8 µM

Cc1ccc(SCC(=O)N[C@H]2CCOC2=O)cc1
IC50 [10]: 50 µM

N#CSCC(=O)CC(=O)N[C@H]1CCOC1=O
EC50 [2]: 2.6 µM
EC50 [3]: 0.017 µM

CCCCCC(=O)CC(=O)N[C@H]1CCOC1=O
IC50 [13]: 0.078 µM
EC50 [3]: 4.5 µM

O=C(CC(=O)NC1CCOC1=O)Cc1ccc(C(F)(F)F)cc1 (stereo not given)
IC50 [1]: 10 µM

CCCCCCC(=O)N[C@H]1CCOC1=O
IC50 [6]: 1.4 µM
IC50 [4]: > 100 µM
IC50 [13]: 2.8 µM

O=C(Cc1ccc(Br)cc1)N[C@H]1CCOC1=O
IC50 [6]: 3.7 µM
IC50 [13]: 3.5 µM

CCCCCCCCCC(=O)CC(=O)CCNC1CCCCC1=O (stereo not given)
inhibition [14]: 35%

O=C(CCCOc1ccc(Cl)cc1)N[C@H]1CCOC1=O
IC50 [13]: 0.49 µM
EC50 [3]: 33 µM

CCCCCCCCCNC(=O)CC(=O)c1ccccc1
IC50 [13]: 2.3 µM

O=C(COCc1ccccc1)NC1CCOC1=O (stereo not given)
IC50 [1]: 2 to 3 µM

O=C(Cc1ccc(-c2ccccc2)cc1)N[C@H]1CCOC1=O
IC50 [6]: 1.1 µM

O=C(CC(=O)NC1CCOC1=O)Cc1ccc(Br)cc1 (stereo not given)
IC50 [1]: 2 µM

O=C(CC(=O)NC1CCOC1=O)Cc1ccc(F)cc1 (stereo not given)
IC50 [1]: 4 µM

CCC(=O)Oc1c(-c2ccccc2Cl)oc2ccccc2c1=O
inhibition [15]: 99.7%
IC50 [16]: 9.6 µM
inhibition [17]: 72.1%
inhibition [18]: 42.3%
inhibition [19]: 27.2%
inhibition [20]: 11.2%
inhibition [21]: 51.3%
Activity [22]: 11.2%
Activity [23]: 97.7%

CCCCCCCCCC(=O)Oc1c(-c2ccc(OC)cc2)oc2ccccc2c1=O
inhibition [15]: 83.5%
IC50 [16]: 13.9 µM
inhibition [17]: 69.8%
inhibition [18]: 11.6%
inhibition [19]: 22.5%
inhibition [20]: 28.1%
inhibition [21]: 14.3%

O=C(CCc1ccc(Br)cc1)N[C@H]1CCOC1=O
IC50 [13]: 0.16 µM
EC50 [3]: 8.4 µM

O=C(CC(=O)N[C@H]1CCOC1=O)CC1CCCC1
EC50 [5]: 0.25 µM

CCCCCCCCCSCC(=O)N[C@H]1CCOC1=O
IC50 [10]: 50 µM

CCCCCCC[S+]([O-])CC(=O)NC1CCOC1=O (stereo not given)
IC50 [10]: 50 µM

CC(C)CC(=O)CC(=O)N[C@H]1CCOC1=O
EC50 [5]: 0.5 µM

CCCCCCCCC(=O)CC(=O)Nc1cccc(OC)c1
inhibition [24]: 74%

O=C(CCCc1ccccc1)NC1CCOC1=O (stereo not given)
IC50 [1]: 2 to 3 µM

CCCCCCCCCS(=O)(=O)NC1CCOC1=O (stereo not given)
IC50 [1]: 40 µM

CCCCCCCCCC(=O)CC(=O)CCN[C@H]1CCC[C@@H]1O
inhibition [14]: 70%

CCC(=O)CC(=O)Nc1cccc(OC)c1
IC50 [4]: > 200 µM
IC50 [13]: 4.7 µM
EC50 [3]: > 100 µM

O=C(Nc1ccccc1NC(=O)c1cccc(Cl)c1)c1cccc(Cl)c1
IC50 [13]: 70 µM
